Assay results from patent US20180178030A1, “PHOTODYNAMIC THERAPEUTIC METHOD FOR TREATING DENTAL INFECTION” (Olighter Co. Ltd., priority 2016, published 2018).

What was measured:
[1] = tested on: G (+) bacteria (Streptococcus mutans, Streptococcus sobrinus); assay: in vitro bacterial disinfection by photodynamic therapy method (FIG. 8), G (+) bacteria; assay type: cell-based; details: photosensitizer plus infrared laser ray 808 nanometers, irradiation about 5 minutes
Description: (§1) One group assay represents the different bacterial disinfection by using the photodynamic therapy method in vitro with a specific irradiated wavelength of the light, and the other group assay represents the different bacterial disinfection by using the photodynamic therapy method in vitro with a specific compound X and the specific irradiated wavelength of the light.
(§2) The light is infrared laser ray. The specific irradiated wavelength of the infrared laser ray of is 808 nanometers. The specific compound X is a photosensitizer. The photosensitizer is the indocyanine green dye. The period of irradiating the bacteria is about 5 minutes. The bacteria include gram positive (G (+)) bacteria and gram negative (G (−)) bacteria. The G (+) bacteria include a Streptococcus mutans (S. mutans) and a Streptococcus sobrinus (S. sobrinus). The G (−) bacteria include an Aggregatibacter actinomycetemcomitans (A. actinomycetemcomitans), a Fusobacterium nucleatum (F. nucleatum), and a Porphyromonas gingivalis (P. gingivalis).
(§3) Referring to FIG. 8, when the photodynamic therapy method in vitro uses the specific photosensitizer and the specific irradiated wavelength of the light, the G (+) bacterial show the percentage growth rate as zero, and the G (−) bacteria show the percentage growth rate as less than 20%.

[2] = tested on: G (−) bacteria (Aggregatibacter actinomycetemcomitans, Fusobacterium nucleatum, Porphyromonas gingivalis); assay: in vitro bacterial disinfection by photodynamic therapy method (FIG. 8), G (−) bacteria; assay type: cell-based; details: photosensitizer plus infrared laser ray 808 nanometers, irradiation about 5 minutes
Description: as §1, §2, §3

SMILES: CC1(C)C(/C=C/C=C/C=C/C=C2\N(CCCCS(=O)(=O)O)c3ccc4ccccc4c3C2(C)C)=[N+](CCCCS(=O)(=O)[O-])c2ccc3ccccc3c21 [specific photosensitizer, indocyanine green]
- percentage growth rate of the bacteria [1]: zero
- percentage growth rate of the bacteria [2]: less than 20%
